From ChEMBL document CHEMBL5724914, “Linking interpersonal differences in gut microbiota composition and drug biotransformation activity” (2024) come the findings set out here.

A short description of data set [1]: The drug is tested on Z-028 corresponding to mouse gut metagenome with ENA study accession number: PRJEB37062 and ENA sample accession number: ERS12561827 for biotransformation under anaerobic condition. The drug concentrations were measured over 9 timepoints collected between 0 and 24 hours of incubation by liquid-chromatography-coupled mass spectrometry (LC–MS). Conditions: 2 µM.

Data set [2] can be described thus: The drug is tested on Z-026 corresponding to metagenome with ENA study accession number: PRJEB37062 and ENA sample accession number: ERS12561825 for biotransformation under anaerobic condition. The drug concentrations were measured over 9 timepoints collected between 0 and 24 hours of incubation by liquid-chromatography-coupled mass spectrometry (LC–MS). The note with it: 2 µM.

Data set [3] in a line: The drug is tested on Z-019 corresponding to rat gut metagenome with ENA study accession number: PRJEB37062 and ENA sample accession number: ERS12561818 for biotransformation under anaerobic condition. The drug concentrations were measured over 9 timepoints collected between 0 and 24 hours of incubation by liquid-chromatography-coupled mass spectrometry (LC–MS). Conditions: 2 µM.

A short description of data set [4]: The drug is tested on Z-018 corresponding to pig gut metagenome with ENA study accession number: PRJEB37062 and ENA sample accession number: ERS12561817 for biotransformation under anaerobic condition. The drug concentrations were measured over 9 timepoints collected between 0 and 24 hours of incubation by liquid-chromatography-coupled mass spectrometry (LC–MS). Conditions: 2 µM.

A short description of data set [5]: The drug is tested on Z-017 corresponding to mouse gut metagenome with ENA study accession number: PRJEB37062 and ENA sample accession number: ERS12561816 for biotransformation under anaerobic condition. The drug concentrations were measured over 9 timepoints collected between 0 and 24 hours of incubation by liquid-chromatography-coupled mass spectrometry (LC–MS). Conditions: 2 µM.

A short description of data set [6]: The drug is tested on Z-014 corresponding to rat gut metagenome with ENA study accession number: PRJEB37062 and ENA sample accession number: ERS12561814 for biotransformation under anaerobic condition. The drug concentrations were measured over 9 timepoints collected between 0 and 24 hours of incubation by liquid-chromatography-coupled mass spectrometry (LC–MS). Conditions: 2 µM.

A short description of data set [7]: The drug is tested on Z-008 corresponding to metagenome with ENA study accession number: PRJEB37062 and ENA sample accession number: ERS12561808 for biotransformation under anaerobic condition. The drug concentrations were measured over 9 timepoints collected between 0 and 24 hours of incubation by liquid-chromatography-coupled mass spectrometry (LC–MS). Conditions: 2 µM.

Data set [8] in a line: The drug is tested on Z-003 corresponding to pig gut metagenome with ENA study accession number: PRJEB37062 and ENA sample accession number: ERS12561803 for biotransformation under anaerobic condition. The drug concentrations were measured over 9 timepoints collected between 0 and 24 hours of incubation by liquid-chromatography-coupled mass spectrometry (LC–MS). Conditions: 2 µM.

Data set [9] in a line: The drug is tested on Z-002 corresponding to rabbit gut metagenome with ENA study accession number: PRJEB37062 and ENA sample accession number: ERS12561802 for biotransformation under anaerobic condition. The drug concentrations were measured over 9 timepoints collected between 0 and 24 hours of incubation by liquid-chromatography-coupled mass spectrometry (LC–MS). The note with it: 2 µM.

Data set [10] can be described thus: The drug is tested on WLS-220 corresponding to human gut metagenome with ENA study accession number: PRJEB37062 and ENA sample accession number: ERS12561769 for biotransformation under anaerobic condition. The drug concentrations were measured over 9 timepoints collected between 0 and 24 hours of incubation by liquid-chromatography-coupled mass spectrometry (LC–MS). The note with it: 2 µM.

Data set [11] in a line: The drug is tested on WLS-086 corresponding to human gut metagenome with ENA study accession number: PRJEB37062 and ENA sample accession number: ERS12561752 for biotransformation under anaerobic condition. The drug concentrations were measured over 9 timepoints collected between 0 and 24 hours of incubation by liquid-chromatography-coupled mass spectrometry (LC–MS). Conditions: 2 µM.

The nature of data set [12]: The drug is tested on WLS-006 corresponding to human gut metagenome with ENA study accession number: PRJEB37062 and ENA sample accession number: ERS12561741 for biotransformation under anaerobic condition. The drug concentrations were measured over 9 timepoints collected between 0 and 24 hours of incubation by liquid-chromatography-coupled mass spectrometry (LC–MS). Conditions: 2 µM.

The conditions of data set [13]: human gut metagenome, 24 h, 2 µM.
The conditions of data set [14]: human gut metagenome, 24 h, 2 µM. This is another data set of the same source.
The conditions of data set [15]: human gut metagenome, 24 h, 2 µM. This is another data set of the same source.
For data set [16] the following is noted: human gut metagenome, 24 h, 2 µM. The source holds these as a separate data set.
For data set [17] the following is noted: human gut metagenome, 24 h, 2 µM. The source holds these as a separate data set.
The conditions of data set [18]: human gut metagenome, 24 h, 2 µM. This is another data set of the same source.
For data set [19] the following is noted: human gut metagenome, 24 h, 2 µM. This is another data set of the same source.
For data set [20] the following is noted: human gut metagenome, 24 h, 2 µM. This is another data set of the same source.
Note: call rule not given here.

`CNCCC(Oc1ccc(C(F)(F)F)cc1)c1ccccc1` (stereo not given) [FLUOXETINE]: the “Bacterial Biotransformation” value in data set [1], in data set [2], in data set [3], in data set [4], in data set [5] and in data set [6] was “Compound NOT metabolized” each time. The “Bacterial Biotransformation” value in [7], in data set [8], in data set [9], in data set [10], in data set [11] and in [12] was “Compound NOT metabolized” in each case. Also, the “Bacterial Biotransformation” value was “Compound NOT metabolized” in data set [13]; “Compound metabolized” in data set [14]; “Compound NOT metabolized” in data set [15]; “Compound metabolized” in [16]; “Compound NOT metabolized” in data set [17]; “Compound NOT metabolized” in data set [18]. The “Bacterial Biotransformation” value in data set [19] was “Compound NOT metabolized”; in data set [20], “Compound metabolized”.

Turning to `O=C(CCCN1CCC(O)(c2ccc(Cl)cc2)CC1)c1ccc(F)cc1` [HALOPERIDOL], the “Bacterial Biotransformation” value in data set [1], in [2], in data set [3], in [4], in data set [5] and in data set [6] was “Compound NOT metabolized” throughout. Further, the “Bacterial Biotransformation” value in [7] was “Compound NOT metabolized”; in data set [8], “Compound metabolized”; in data set [9] it was “Compound metabolized”; in data set [10], “Compound metabolized”; in data set [11], “Compound metabolized”; in data set [12] it was “Compound metabolized”. The “Bacterial Biotransformation” value is given as “Compound NOT metabolized” in data set [13]; “Compound NOT metabolized” in data set [14]; “Compound NOT metabolized” in [15]; “Compound NOT metabolized” in data set [16]; “Compound metabolized” in [17]; “Compound NOT metabolized” in data set [18]. The “Bacterial Biotransformation” value in [19] and in data set [20] was “Compound metabolized” throughout.

On to `CCCCC1=NC2(CCCC2)C(=O)N1Cc1ccc(-c2ccccc2-c2nnn[nH]2)cc1` [IRBESARTAN], for which the “Bacterial Biotransformation” value in data set [1] is “Compound NOT metabolized”; in data set [2], “Compound NOT metabolized”; in data set [3], “Compound NOT metabolized”; in data set [4], “Compound metabolized”; in [5] it was “Compound NOT metabolized”; in [6] it was “Compound NOT metabolized”. Besides, the “Bacterial Biotransformation” value is reported as “Compound NOT metabolized” in data set [7]; “Compound metabolized” in data set [8]; “Compound metabolized” in data set [9]; “Compound metabolized” in data set [10]; “Compound metabolized” in data set [11]; “Compound metabolized” in data set [12]. The “Bacterial Biotransformation” value in data set [13] is listed as “Compound metabolized”; in data set [14], “Compound metabolized”; in data set [15], “Compound metabolized”; in data set [16] it was “Compound NOT metabolized”; in [17], “Compound metabolized”; in data set [18], “Compound metabolized”. The “Bacterial Biotransformation” value in data set [19] and in data set [20] was “Compound metabolized” throughout.

For `NC(CO)(CO)CO.O=C(c1ccccc1)c1ccc2n1CCC2C(=O)O` (stereo not given) [KETOROLAC TROMETHAMINE], the “Bacterial Biotransformation” value in data set [1], in data set [2], in [3], in data set [4], in data set [5] and in data set [6] was “Compound NOT metabolized” throughout. Moreover, the “Bacterial Biotransformation” value in data set [7] is “Compound NOT metabolized”; in data set [8], “Compound metabolized”; in data set [9], “Compound metabolized”; in data set [10] it was “Compound metabolized”; in data set [11], “Compound metabolized”; in data set [12], “Compound metabolized”. The “Bacterial Biotransformation” value in data set [13], in [14], in data set [15], in data set [16], in [17] and in [18] was “Compound metabolized” in each case. The “Bacterial Biotransformation” value in data set [19] and in data set [20] was “Compound metabolized” in each case.

In the case of `CC[C@H](C)C(=O)O[C@H]1C[C@@H](C)C=C2C=C[C@H](C)[C@H](CC[C@@H]3C[C@@H](O)CC(=O)O3)[C@H]21` [LOVASTATIN], the “Bacterial Biotransformation” value in data set [1] was “Compound metabolized”; in data set [2], “Compound metabolized”; in data set [3], “Compound metabolized”; in data set [4], “Compound metabolized”; in data set [5], “Compound metabolized”; in data set [6] it was “Compound NOT metabolized”. The “Bacterial Biotransformation” value in data set [7], in data set [8], in data set [9], in data set [10], in [11] and in data set [12] was “Compound NOT metabolized” each time. Also, the “Bacterial Biotransformation” value in [13] is on record as “Compound NOT metabolized”; in [14], “Compound NOT metabolized”; in data set [15] it was “Compound NOT metabolized”; in data set [16] it was “Compound metabolized”; in data set [17] it was “Compound NOT metabolized”; in [18], “Compound NOT metabolized”. Further, the “Bacterial Biotransformation” value in data set [19] and in data set [20] was “Compound NOT metabolized” throughout.
